Key:
rat-derived ACAT = test: Inhibitory effects on rat-derived ACAT (Test 1); format: biochemical; settings: crude enzyme from microsome protein fractions of rat liver, (14C)-oleoyl-CoA substrate, 37°C
Procedure: To test effects on ACAT, a reaction was conducted in vitro to form (^14C)-cholesteryl oleate from endogeneous cholesterol in the presence of (^14C)-oleoyl-CoA as a substrate by using a crude enzyme prepared from microzome protein fractions of a rat liver.
The reaction mixture had the following composition: 20 µℓ of microsome protein (1.83 mg/mℓ), 20 µℓ of (^14C)-oleoyl-CoA (5 µCi/mℓ, BSA: 96 nmol/mℓ), 106 µℓ of 100 mM phosphate buffer (containing 5 mM of dithiothreitol, pH 7.4) and a sample dissolved in 4 µℓ of methanol or dimethyl sulfoxide; 150 µℓ in total.
The reaction was conducted at 37°C. After an elapse of a predetermined reaction time (18 minutes in general), a 2:1 mixture of chloroform and methanol (5.65 mℓ) was added to terminate the reaction. A 0.04 N aquous solution of hydrochloric acid (0.98 mℓ) and as a carrier, cholesteryl oleate were added, followed by extraction for 20 minutes on a shaking apparatus. The mixture was then allowed to stand overnight in a cold dark place. On the following day, the separated lower chloroform layer was extracted in its entirety and was dried under a nitrogen gas stream. The remaining upper layer was added with the lower layer (5.65 mℓ) of the Folch's partition solution, and was extracted again. After the mixture was allowed to stand overnight in a dark place, the lower layer was drawn in its entirety. This lower layer was combined with the lower chloroform layer fraction, which had already been dried to solid, and the mixture was then dried to solid.
The solid was then dissolved in chlorofrom (200 µℓ), and the solution was coated in its entirety on a G60 plate (aluminum sheet) for silica gel thin layer chromatography. After the solid was developedover 10 cm with a 10:190 mixture of diethyl ether and petroleum ether, autoradiography was conducted and the formation of (^14C)-colesteryl oleate was confirmed. This section was then cut off. The radioactivity of each sample was measured by subjecting it to liquid scintillation counting for 5 minutes in toluene or was measured for 30 minutes by a "Betascope" (manufactured by BETA-GEN INC. The results so obtained are shown in Table 1. Table 1

[1] = test system: J774.1 strain, an established cell line of mouse macrophage; test: Inhibitory effects on the accumulation of cholesterol esters in macrophage (Test 2); format: cell-based; settings: J774.1 mouse macrophage, 12 hours incubation with cholesterol liposomes
Procedure: Inhibitory effects on the accumulation of cholesterol esters in macrophage were tested using J774.1 strain, an established cell line of mouse macrophage.
Metabolism of LDL in endothelial cells or smooth muscle cells causes downregulation of the LDL receptor by excess free cholesterol in the cells, but in a macrophage, uptake of modified lDL takes place via a scavenger receptor. As no regulation is applied to this pathway, cholesterol esters progressively accumulate without any limitation.
It was therefore studied whether or not corydaline would inhibit intracellular accumulation of cholesterol esters by having liposomes, which were formed of […] cholesterol and phosphatidylcholine, uptaken in macrophage cells and then causing them to act on acyl-CoA:cholesterol acyltransferase which existed on rough-surfaced endoplasmic reticula.
The macrophage cells were incubated for 2 days under 5% CO2 on an RPMI 1640 medium (product of NISSUI PHARMACEUTICAL CO., LTD.) which had been added with 10% fetal bovine serum, penicilin (50 U/mℓ) and streptomycin (50 µg/mℓ). Trypsinization was then conducted, and cells attached to the bottom of each well were peeled off and formulated into a cell suspension. The cells were washed with a fresh supply of the above-described culture medium, and the cell solution was then seeded at 2 x 10^6 cells/mℓ on a 24-well multiple well plate ("25820-24", product of CORNING INC.). After incubation at 37°C under 5% CO2 for 37 hours, the culture medium was replaced with a fresh supply of the above-described culture medium and, after a 0.3 M glucose solution (40 µℓ) with cholesterol [80 µg; containing 0.4 µCi of (^3H)-cholesterol] and phosphatidylcholine (160 µg) contained therein and a methanol solution (10 µℓ)with a test sample dissolved therein were added, incubation was conducted for 12 hours. These procedures were carried out aseptically.
After completion of the incubation, cells attached to each bottom were washed 5 times with a serum-free RPMI 1640 medium by a graduated pipet, and isopropanol (1 mℓ) was added to extract intracellular cholesterol and formed cholesterol esters. The extract was coated in its entirety on a silica gel thin layer chromatography ("Art 5553", product of MERCK & Co., INC.) and subsequent to development with a 80:20:2 mixture of hexane, ethyl ether and formic acid, autoradiography was performed.
A section, which contained ^3H-labelled cholesterol esters and cholesterol, was cut off. Its radioactivity was measured by a liquid scintillation counter and compared with a control, whereby a cholesterol ester accumulation inhibition rate was determined.

Row | Molecule | IC50 (rat-derived ACAT) [nM] | IC50 ([1]; Mus musculus, J774.1, 12 h) [nM] | IC50 [1] [nM]
1 | COc1cc(/C=C/C(=O)Nc2cccc(C)c2C)cc(OC)c1OCc1ccccc1 [Compound 64, N-(2,3-dimethylphenyl)-(2E)-3-(3,5-dimethoxy-4-benzyloxyphenyl)-2-propenamide] | 35 | 900 | –
2 | N-[4-(2,4-dimethylphenyl)-1,4-diazacyclohexyl]-(2E)-3-[3,5-dimethoxy-4-(3-phenyl)propyloxy]-2-propenamide [Compound 23] | – | – | 32
3 | COc1cc(/C=C/C(=O)Nc2ccc(N(C)C)cc2)cc(OC)c1OCc1ccccc1 [Compound 74, N-[4-(N',N^'-dimethylamino)phenyl]-(2E)-3-(3,5-dimethoxy-4-benzyloxyphenyl)-2-propenamide] | 90 | – | 990
4 | COc1cc(/C=C/C(=O)NCCCCc2ccccc2)cc(OC)c1OCc1ccccc1 [Compound 61, N-(4-phenyl)butyl-(2E)-3-(3,5-dimethoxy-4-benzyloxyphenyl)-2-propenamide] | – | 840 | –
5 | COc1cc(/C=C/C(=O)NCCCc2ccccc2)cc(OC)c1OCc1ccccc1 [Compound 60, N-(3-phenyl)propyl-(2E)-3-(3,5-dimethoxy-4-benzyloxyphenyl)-2-propenamide] | – | 870 | –
6 | COc1cc(/C=C/C(=O)N2CCN(c3ccc(C)c(C)c3)CC2)cc(OC)c1OCc1ccccc1 [Compound 11, N-[4-(3,4-dimethylphenyl)-1,4-diazacyclohexyl]-(2E)-(3,5-dimethoxy-4-benzyloxyphenyl)-2-propenamide] | 60 | – | 189
7 | COc1cc(/C=C/C(=O)NC2CCN(Cc3ccccc3)CC2)cc(OC)c1OCc1ccccc1 [Compound 62, N-[4-(1-benzyl)piperidino]-(2E)-3-(3,5-dimethoxy-4-benzyloxyphenyl)-2-propenamide] | – | – | 840
8 | CCCCCCOc1c(OC)cc(/C=C/C(=O)N2CCN(c3ccc(C)cc3C)CC2)cc1OC [Compound 13] | 79 | – | 200
9 | COc1cc(/C=C/C(=O)Nc2c(C)cccc2C)cc(OC)c1OCc1ccccc1 [Compound 66, N-(2,6-dimethylphenyl)-(2E)-3-(3,5-dimethoxy-4-benzyloxyphenyl)-2-propenamide] | 47 | 900 | –
10 | COc1cc(/C=C/C(=O)Nc2ccccc2C(C)(C)C)cc(OC)c1OCc1ccccc1 [Compound 70, N-(2-tert-butylphenyl)-(2E)-3-(3,5-dimethoxy-4-benzyloxyphenyl)-2-propenamide] | – | 840 | –
11 | COc1cc(/C=C/C(=O)Nc2c(C)cc(C)cc2C)cc(OC)c1OCc1ccccc1 [Compound 67, N-(2,4,6-trimethylphenyl)-(2E)-3-(3,5-dimethoxy-4-benzyloxyphenyl)-2-propenamide] | – | 870 | –
12 | COc1cc(/C=C/C(=O)NCc2ccccc2)cc(OC)c1OCc1ccccc1 [Compound 58, N-benzyl-(2E)-3-(3,5-dimethoxy-4-benzyloxyphenyl)-2-propenamide] | – | 930 | –

Continued by falling IC50 ([1]; Mus musculus, J774.1, 12 h), values first:

Row | IC50 (rat-derived ACAT) [nM] | IC50 ([1]; Mus musculus, J774.1, 12 h) [nM] | Molecule | IC50 [1] [nM]
13 | 72 | 790 | COc1cc(/C=C/C(=O)Nc2c(C(C)C)cccc2C(C)C)cc(OC)c1OCc1ccccc1 [Compound 68, N-(2,6-diisopropylphenyl)-(2E)-3-(3,5-dimethoxy-4-benzyloxyphenyl)-2-propenamide] | –
14 | – | 620 | COc1cc(/C=C/C(=O)NCCc2ccccc2)cc(OC)c1OCc1ccccc1 [Compound 59, N-(2-phenyl)ethyl-(2E)-3-(3,5-dimethoxy-4-benzyloxyphenyl)-2-propenamide] | –
15 | 52 | 520 | COc1cc(/C=C/C(=O)Nc2ccc(C)cc2C)cc(OC)c1OCc1ccccc1 [Compound 63, N-(2,4-dimethylphenyl)-(2E)-3-(3,5-dimethoxy-4-benzyloxyphenyl)-2-propenamide] | –
16 | – | 490 | COc1cc(/C=C/C(=O)Nc2ccccc2)cc(OC)c1OCc1ccccc1 [Compound 76, N-phenyl-(2E)-3-(3,5-dimethoxy-4-benzyloxyphenyl)-2-propenamide] | –
17 | 76 | 470 | COc1cc(/C=C/C(=O)Nc2ccc(F)cc2)cc(OC)c1OCc1ccccc1 [Compound 77, N-(4-fluorophenyl)-(2E)-3-(3,5-dimethoxy-4-benzyloxyphenyl)-2-propenamide] | –
18 | 60 | 430 | COc1cc(/C=C/C(=O)Nc2cc(C(F)(F)F)cc(C(F)(F)F)c2)cc(OC)c1OCc1ccccc1 [Compound 83, N-(3,5-bistrifluoromethylphenyl)-(2E)-3-(3,5-dimethoxy-4-benzyloxyphenyl)-2-propenamide] | –
19 | 35 | 170 | COc1ccc(NC(=O)/C=C/c2cc(OC)c(OCc3ccccc3)c(OC)c2)cc1 [Compound 72, N-(4-methoxyphenyl)-(2E)-3-(3,5-dimethoxy-4-benzyloxyphenyl)-2-propenamide] | –
20 | 35 | 170 | COc1cc(/C=C/C(=O)Nc2ccc(Cl)cc2)cc(OC)c1OCc1ccccc1 [Compound 78, N-(4-chlorophenyl)-(2E)-3-(3,5-dimethoxy-4-benzyloxyphenyl)-2-propenamide] | –
21 | – | 150 | COc1cc(/C=C/C(=O)Nc2ccc(Cl)c(Cl)c2)cc(OC)c1OCc1ccccc1 [Compound 81, N-(3,4-dichlorophenyl)-(2E)-3-(3,5-dimethoxy-4-benzyloxyphenyl)-2-propenamide] | –
22 | 37 | 120 | COc1cc(/C=C/C(=O)Nc2ccc(C)cc2)cc(OC)c1OCc1ccccc1 [Compound 71, N-(4-methylphenyl)-(2E)-3-(3,5-dimethoxy-4-benzyloxyphenyl)-2-propenamide] | –
23 | – | 78 | COc1cc(/C=C/C(=O)Nc2ccc(Br)cc2)cc(OC)c1OCc1ccccc1 [Compound 79, N-(4-bromophenyl)-(2E)-3-(3,5-dimethoxy-4-benzyloxyphenyl)-2-propenamide] | –
24 | 47 | 46 | COc1cc(/C=C/C(=O)Nc2ccc(C)c(C)c2)cc(OC)c1OCc1ccccc1 [Compound 65, N-(3,4-dimethylphenyl)-(2E)-3-(3,5-dimethoxy-4-benzyloxyphenyl)-2-propenamide] | –
25 | – | 43 | COc1cc(/C=C/C(=O)Nc2ccc(I)cc2)cc(OC)c1OCc1ccccc1 [Compound 80, N-(4-iodophenyl)-(2E)-3-(3,5-dimethoxy-4-benzyloxyphenyl)-2-propenamide] | –
26 | – | 31 | COc1cc(/C=C/C(=O)Nc2ccc(OC(C)C)cc2)cc(OC)c1OCc1ccccc1 [Compound 73, N-(4-isopropyloxyphenyl)-(2E)-3-(3,5-dimethoxy-4-benzyloxyphenyl)-2-propenamide] | –
27 | – | 28 | COc1cc(/C=C/C(=O)Nc2ccc(C(C)(C)C)cc2)cc(OC)c1OCc1ccccc1 [Compound 69, N-(4-tert-butylphenyl)-(2E)-3-(3,5-dimethoxy-4-benzyloxyphenyl)-2-propenamide] | –
28 | – | 26 | COc1cc(/C=C/C(=O)Nc2ccc(Oc3ccccc3)cc2)cc(OC)c1OCc1ccccc1 [Compound 85, N-(4-phenoxyphenyl)-(2E)-3-(3,5-dimethoxy-4-benzyloxyphenyl)-2-propenamide] | –

From patent publication EP0974573A1, “PHENYLPROPENONE COMPOUNDS AND MEDICINES CONTAINING THE SAME” (Kabushiki Kaisha Yakult Honsha, priority 1997, dated 1998)
